Experimental findings from patent US9452990B2, “Complement pathway modulators and uses thereof” (NOVARTIS AG, priority 2012, dated 2016) are described below.

Structures are written as SMILES. Counter-ions that a name gives are not always drawn. Like-named read-outs stand apart in the source and are kept apart here.

The assay deals with human complement factor B (CVF-Bb complex) (Homo sapiens (Human), UniProt P00751). As to the kind of experiment: Human Complement Factor B ELISA Assay. It is filed as biochemical. As to the method:
Human Complement Factor B ELISA Assay
CVF-Bb complex prepared from purified cobra venom factor (1 μM), recombinant human complement factor B (expressed in drosophila cells and purified using standard methods) and human complement factor D (expressed in E. Coli, refolded and purified using standard methods). CVF-Bb complex at 3 nM concentration was incubated with test compound at various concentrations for 1 hour at room temperature in PBS pH 7.4 containing 10 mM MgCl2 and 0.05% (w/v) CHAPS. Human complement C3 substrate purified from plasma was added to a final concentration of 1 μM. After 1 hour incubation at room temperature, the enzyme reaction was stopped by addition of a cocktail of concentrated pan-protease inhibitors. The product of the reaction, C3a, was quantified by means of an enzyme-linked-immunosorbent assay. IC50 values were calculated from percentage of inhibition of CVF-Bb activity as a function of test compound concentration.
On the technique in general: An ELISA detects its analyte on a solid surface through an enzyme-linked reagent.

Setting [1] is: CVF-Bb complex 3 nM, 1 hour preincubation with compound at room temperature, human C3 substrate 1 μM, C3a quantified by ELISA, read-out: Factor B IC50.

Usually IC50 stands for the concentration at which inhibition is half-maximal. Regarding `C#CC[C@H](N)CC(=O)N1CCN(c2nc(N)c3cc(OC)c(OC)c(F)c3n2)CC1` [Example 31, (S)-3-Amino-1-[4-(4-amino-8-fluoro-6,7-dimethoxy-quinazolin-2-yl)-piperazin-1-yl]-hex-5-yn-1-one], under setting [1], the IC50 was 1040 nM.
Same read-out and setting: under `COc1cc2c(N)nc(N3CCN(C(=O)C[C@@H](N)C4CCCC4)CC3)nc2c(F)c1OC` [Example 32, (R)-3-Amino-1-[4-(4-amino-8-fluoro-6,7-dimethoxy-quinazolin-2-yl)-piperazin-1-yl]-3-cyclopentyl-propan-1-one] stands 100 nM.
As for `COc1cc2c(N)nc(N3CCN(C(=O)C[C@@H](N)CC(C)C)CC3)nc2c(F)c1OC` [Example 33, (S)-3-Amino-1-[4-(4-amino-8-fluoro-6,7-dimethoxy-quinazolin-2-yl)-piperazin-1-yl]-5-methyl-hexan-1-one], the IC50 under setting [1] worked out at 680 nM.
`COc1cc2c(N)nc(N3CCN(C(=O)C[C@@H](N)c4ccco4)CC3)nc2c(F)c1OC` [Example 34, (R)-3-Amino-1-[4-(4-amino-8-fluoro-6,7-dimethoxy-quinazolin-2-yl)-piperazin-1-yl]-3-furan-2-yl-propan-1-one hydrochloride] came in with a half-inhibitory concentration (IC50) of 90 nM.
On the same count and under the same terms, under `COc1cc2c(N)nc(N3CCN(C(=O)C[C@@H](N)c4ccoc4)CC3)nc2c(F)c1OC` [Example 35, (R)-3-Amino-1-[4-(4-amino-8-fluoro-6,7-dimethoxy-quinazolin-2-yl)piperazin-1-yl]-3-furan-3-yl-propan-1-one hydrochloride] stands 310 nM; under `COc1cc2c(N)nc(N3CCN(C(=O)C[C@@H](N)c4cccs4)CC3)nc2c(F)c1OC` [Example 36, (R)-3-Amino-1-[4-(4-amino-8-fluoro-6,7-dimethoxy-quinazolin-2-yl)-piperazin-1-yl]-3-thiophen-2-yl-propan-1-one hydrochloride], 190 nM.
For `COc1cc2c(N)nc(N3CCN(C(=O)C[C@@H](N)c4ccsc4)CC3)nc2c(F)c1OC` [Example 37, (R)-3-Amino-1-[4-(4-amino-8-fluoro-6,7-dimethoxy-quinazolin-2-yl)-piperazin-1-yl]-3-thiophen-3-yl-propan-1-one], the IC50 under setting [1] came to 40 nM.
Turning to `COc1cc2c(N)nc(N3CCN(C(=O)C[C@@H](N)c4ccc(C)s4)CC3)nc2c(F)c1OC` [Example 38, (R)-3-Amino-1-[4-(4-amino-8-fluoro-6,7-dimethoxy-quinazolin-2-yl)piperazin-1-yl]-3-(5-methyl-thiophen-2-yl)-propan-1-one], the IC50 under setting [1] is 180 nM.
On the same count and under the same terms, under `COc1cc2c(N)nc(N3CCN(C(=O)C[C@@H](N)c4ccccc4)CC3)nc2c(F)c1OC` [Example 39, (R)-3-Amino-1-[4-(4-amino-8-fluoro-6,7-dimethoxy-quinazolin-2-yl)-piperazin-1-yl]-3-phenyl-propan-1-one] stands 230 nM; under `COc1cc2c(N)nc(N3CCN(C(=O)C[C@@H](N)c4cccc(C)c4)CC3)nc2c(F)c1OC` [Example 40, (R)-3-Amino-1-[4-(4-amino-8-fluoro-6,7-dimethoxy-quinazolin-2-yl)-piperazin-1-yl]-3-m-tolyl-propan-1-one], 220 nM.
The same measure, in the same setting: under `COc1cc2c(N)nc(N3CCN(C(=O)C[C@@H](N)c4ccc(C)cc4)CC3)nc2c(F)c1OC` [Example 41, (R)-3-Amino-1-[4-(4-amino-8-fluoro-6,7-dimethoxy-quinazolin-2-yl)-piperazin-1-yl]-3-p-tolyl-propan-1-one] stands 70 nM.
In turn, `C#Cc1ccc([C@H](N)CC(=O)N2CCN(c3nc(N)c4cc(OC)c(OC)c(F)c4n3)CC2)cc1` [Example 42, (R)-3-Amino-1-[4-(4-amino-8-fluoro-6,7-dimethoxy-quinazolin-2-yl)-piperazin-1-yl]-3-(4-ethynyl-phenyl)-propan-1-one hydrochloride] came in with an IC50 of 510 nM.
For `COc1cc2c(N)nc(N3CCN(C(=O)C[C@@H](N)c4cccc(C#N)c4)CC3)nc2c(F)c1OC` [Example 43, 3-{(R)-1-Amino-3-[4-(4-amino-8-fluoro-6,7-dimethoxy-quinazolin-2-yl)-piperazin-1-yl]-3-oxo-propyl}-benzonitrile], the IC50 under setting [1] is 40 nM.
For `COc1cc2c(N)nc(N3CCN(C(=O)C[C@@H](N)c4ccc(C#N)cc4)CC3)nc2c(F)c1OC` [Example 44, 4-{(R)-1-Amino-3-[4-(4-amino-8-fluoro-6,7-dimethoxy-quinazolin-2-yl)piperazin-1-yl]-3-oxo-propyl}-benzonitrile hydrochloride], the IC50 came to 10 nM.
In the case of `COc1cc2c(N)nc(N3CCN(C(=O)C[C@@H](N)c4cccc(F)c4)CC3)nc2c(F)c1OC` [Example 45, (R)-3-Amino-1-[4-(4-amino-8-fluoro-6,7-dimethoxy-quinazolin-2-yl)-piperazin-1-yl]-3-(3-fluoro-phenyl)-propan-1-one], under setting [1], the IC50 amounted to 50 nM.
As for `COc1cc2c(N)nc(N3CCN(C(=O)C[C@@H](N)c4ccc(F)cc4)CC3)nc2c(F)c1OC` [Example 46, (R)-3-Amino-1-[4-(4-amino-8-fluoro-6,7-dimethoxy-quinazolin-2-yl)-piperazin-1-yl]-3-(4-fluoro-phenyl)-propan-1-one], the IC50 under setting [1] amounted to 40 nM.
Still for that read-out and setting: next, `COc1cc2c(N)nc(N3CCN(C(=O)C[C@@H](N)c4cccc(Cl)c4)CC3)nc2c(F)c1OC` [Example 47, (R)-3-Amino-1-[4-(4-amino-8-fluoro-6,7-dimethoxy-quinazolin-2-yl)-piperazin-1-yl]-3-(3-chloro-phenyl)-propan-1-one]: 110 nM.
For `COc1cc2c(N)nc(N3CCN(C(=O)C[C@@H](N)c4ccc(Cl)cc4)CC3)nc2c(F)c1OC` [Example 48, (R)-3-Amino-1-[4-(4-amino-8-fluoro-6,7-dimethoxy-quinazolin-2-yl)-piperazin-1-yl]-3-(4-chloro-phenyl)-propan-1-one hydrochloride], the IC50 is 90 nM.
On the same count and under the same terms, under `COc1cc2c(N)nc(N3CCN(C(=O)C[C@@H](N)c4ccc(Br)cc4)CC3)nc2c(F)c1OC` [Example 49, (R)-3-Amino-1-[4-(4-amino-8-fluoro-6,7-dimethoxy-quinazolin-2-yl)-piperazin-1-yl]-3-(4-bromo-phenyl)-propan-1-one hydrochloride] stands 60 nM.
Regarding `COc1cc2c(N)nc(N3CCN(C(=O)C[C@@H](N)c4ccc(F)cc4F)CC3)nc2c(F)c1OC` [Example 50, (R)-3-Amino-1-[4-(4-amino-8-fluoro-6,7-dimethoxy-quinazolin-2-yl)-piperazin-1-yl]-3-(2,4-difluoro-phenyl)-propan-1-one hydrochloride], the half-inhibitory concentration (IC50) amounted to 450 nM.
Still for that read-out and setting: under `COc1cc2c(N)nc(N3CCN(C(=O)C[C@@H](N)c4ccc(F)c(F)c4)CC3)nc2c(F)c1OC` [Example 51, (R)-3-Amino-1-[4-(4-amino-8-fluoro-6,7-dimethoxy-quinazolin-2-yl)piperazin-1-yl]-3-(3,4-difluoro-phenyl)-propan-1-one hydrochloride] stands 180 nM; under `COc1cc2c(N)nc(N3CCN(C(=O)C[C@@H](N)c4ccc(F)c(Cl)c4)CC3)nc2c(F)c1OC` [Example 52, (R)-3-Amino-1-[4-(4-amino-8-fluoro-6,7-dimethoxy-quinazolin-2-yl)-piperazin-1-yl]-3-(3-chloro-4-fluoro-phenyl)-propan-1-one hydrochloride], 110 nM.
Still for that read-out and setting: under `COc1cc2c(N)nc(N3CCN(C(=O)C[C@@H](N)c4ccc(C(F)F)cc4)CC3)nc2c(F)c1OC` [Example 53, (R)-3-Amino-1-[4-(4-amino-8-fluoro-6,7-dimethoxy-quinazolin-2-yl)piperazin-1-yl]-3-(4-difluoromethyl-phenyl)-propan-1-one hydrochloride] stands 50 nM.
For `COc1cc2c(N)nc(N3CCN(C(=O)C[C@@H](N)c4cccc(C(F)(F)F)c4)CC3)nc2c(F)c1OC` [Example 54, (R)-3-Amino-1-[4-(4-amino-8-fluoro-6,7-dimethoxy-quinazolin-2-yl)-piperazin-1-yl]-3-(3-trifluoromethyl-phenyl)-propan-1-one], the IC50 under setting [1] was determined as 260 nM.
`COc1cc2c(N)nc(N3CCN(C(=O)C[C@@H](N)c4ccc(C(F)(F)F)cc4)CC3)nc2c(F)c1OC` [Example 55, (R)-3-Amino-1-[4-(4-amino-8-fluoro-6,7-dimethoxy-quinazolin-2-yl)piperazin-1-yl]-3-(4-trifluoromethyl-phenyl)-propan-1-one hydrochloride]: inhibition was half-maximal at 160 nM (IC50).
Same read-out and setting: under `COc1cc2c(N)nc(N3CCN(C(=O)C[C@@H](N)CC(C)C)C[C@@H]3C)nc2c(F)c1OC` [Example 56, (S)-3-Amino-1-[(S)-4-(4-amino-8-fluoro-6,7-dimethoxy-quinazolin-2-yl)-3-methyl-piperazin-1-yl]-5-methyl-hexan-1-one hydrochloride] stands 240 nM; under `COc1cc2c(N)nc(N3CCN(C(=O)C[C@@H](N)c4ccccc4)C[C@@H]3C)nc2c(F)c1OC` [Example 57, (R)-3-Amino-1-[(S)-4-(4-amino-8-fluoro-6,7-dimethoxy-quinazolin-2-yl)-3-methyl-piperazin-1-yl]-3-phenyl-propan-1-one hydrochloride], 210 nM.
`COc1cc2c(N)nc(N3CCN(C(=O)C[C@@H](N)c4ccc(C#N)cc4)C[C@@H]3C)nc2c(F)c1OC` [Example 58, 4-{(R)-1-Amino-3-[(S)-4-(4-amino-8-fluoro-6,7-dimethoxy-quinazolin-2-yl)-3-methyl-piperazin-1-yl]-3-oxo-propyl}-benzonitrile hydrochloride] gave an IC50 of 9 nM.
